Laboratory results as given in publication PMC7026885, “Macrofilaricidal Benzimidazole–Benzoxaborole Hybrids as an Approach to the Treatment of River Blindness: Part 1. Amide Linked Analogs” (ACS Infectious Diseases, 2019).

Columns and labels:
[1] = tested on: Onchocerca volvulus L3 larvae; assay: Onchocerca volvulus L3 larval molting assay; format: cell-based; settings: O. volvulus, 1 μM
Protocol: (§1) The first three analogs from the benzimidazole 5-carboxylic acid, namely 7a (from 6-aminobenzoxaborole), 8a (from 6-aminomethyl-3,3-dimethylbenzoxaborole), and 8b (from 3-aminomethylbenzoxaborole), were prepared and tested in an Onchocerca volvulus L3 larval molting assay[34],[35] and a mammalian G2/M arrest assay[36] to evaluate antifilarial activity and selectivity, respectively (Table 1). O. volvulus is the causative agent of river blindness, and the L3 molting assay is the only widely available and reproducible assay of this filariid, the target of novel macrofilaricidal drugs.[34],[35] Other animal models (e.g., Brugia in gerbils) recapitulate aspects of lymphatic filariasis and are also used as surrogate screens for O. volvulus infections. Of the three compounds tested, 8a emerged as the most attractive compound on the basis of potency and selectivity.
Plates were incubated at 37 °C in a 5% CO2 incubator for 6 days, then molting was assessed visually using an inverted microscope. Molting was determined in each well by counting the presence of fourth stage larvae (L4s) and empty casts of L3s.
The percent inhibition of molting was calculated based on the number of treated larvae that were able to molt in comparison to the number of control larvae that had successfully molted. IC50 values were calculated using GraphPad Prism v6.0
(http://www.graphpad.com). See Bullman et al., PLoS Negl. Trop.
Adult Brugia malayi transplantation in vivo model procedure.
Gerbils (Meriones unguiculatus) were infected by transplantation of 10 male and 10 female adult Brugia malayi into the peritoneal cavity. Gerbils were acclimated for 7 days prior to treatment. Animals were dosed based on their body weight prior to each dosing. Animals were administered their doses at the same time each day and receive standard rodent laboratory diet and water ad libitum. Gerbils were humanely euthanized at the conclusion of each study. Peritoneal counts of male and female adult B. malayi and visual condition of the peritoneum were recorded.
Brugia pahangi L3 injection in vivo model procedure 8.
Male gerbils (Meriones unguiculatus) approximately 6 weeks of age (50-60 g) were purchased from Charles Rivers (USA, Kingston K62 Gerbils) and infected by intraperitoneal injection with 200 Brugia pahangi third-stage larvae (L3) per animal
(Filariatech, Inc., Athens, GA). Gerbils were housed with no more than 5 animals per cage and maintained 9 months prior to treatment. All gerbils were dosed in accordance with their body weight determined prior to each dosing. Animals were […]

[2] = tested on: G2/M arrest (functional indicator of interaction with mammalian tubulin); assay: mammalian G2/M arrest assay; format: cell-based; settings: Table 3; read-out: G2/M IC50
Protocol: as §1
Similarly, changing the point of attachment on the benzoxaborole core from 6- to 5- to afford 8d was also accompanied by increased potency in both the O. volvulus and G2/M arrest assays.

[3] = MDR1-MDCK monolayer permeability assay; format: in vitro ADME; settings: dog
Protocol: We characterized the in vitro ADME properties of 8a in preparation for evaluation of this compound in our primary in vivo model in gerbils. […] We were pleased to find that 8a was able to kill 100% of both male and female worms in the gerbil peritoneum when dosed subcutaneously at 100 mg/kg/day for 14 days as a suspension in a nonsolubilizing HEC/Tween vehicle. […] The subsequent assessment of the pharmacokinetics of 8a from these two dosing paradigms provided an interesting observation that we believe to be important in understanding the PK–PD requirements for achieving efficacy in this animal model. […] We had made the same observation in a positive control group using flubendazole at a subcutaneous dose of 10 mg/kg/day for 5 days in the nonsolubilizing HEC/Tween vehicle, namely, that plasma levels of flubendazole were maintained above the in vitro IC50 (4 nM) for over 42 days, consistent with data reported in the literature.[43] […] We next examined 8a in two additional in vivo models, the first where L3 B. pahangi larvae were injected into the peritoneum of gerbils and allowed to develop into adult worms[45] and a second where gerbils were naturally infected by the filarial nematode Litomosoides sigmodontis.[46],[47] In both of these models, 8a was administered subcutaneously at 100 mg/kg for 14 days or orally at 100 mg/kg for 28 days as a suspension. […] Additionally, when plasma obtained from treated animals at necropsy was analyzed for 8a, we observed an outcome similar to that observed in the adult implantation model, e.g., that measurable levels were present at this time point in the subcutaneous-dosed groups but not in the orally dosed groups, weeks after administration of the drug. In a final L. sigmodontis experiment with 8a, we dosed the compound subcutaneously at 300 mg/kg for 7 days as a suspension.

Row | Structure (SMILES) | inhibition at 1 µM [1] | IC50 [2] | Papp A→B [3]
1 | COC(=O)Nc1nc2cc(C(=O)NCc3ccc4c(c3)B(O)OC4(C)C)ccc2n1C [8e] | 24% | > 100 µM | 1.2 ×10⁻⁶ cm/s
2 | COC(=O)Nc1nc2ccc(C(=O)NCc3ccc4c(c3)B(O)OC4(C)C)cc2n1C [8f] | 29% | > 100 µM | 1.8 ×10⁻⁶ cm/s
3 | COC(=O)Nc1nc2ccc(C(=O)N(C)Cc3ccc4c(c3)B(O)OC4(C)C)cc2[nH]1 [8g] |  | 4.1 µM | 0.6 ×10⁻⁶ cm/s
4 | COC(=O)Nc1nc2ccc(C(=O)N(CCN(C)C)Cc3ccc4c(c3)B(O)OC4(C)C)cc2[nH]1 [8h] |  | 35 µM | 0.14 ×10⁻⁶ cm/s
5 | COC(=O)Nc1nc2c(F)c(C(=O)NCc3ccc4c(c3)B(O)OC4(C)C)ccc2[nH]1 [8i] | 0% | 16 µM | 2.35 ×10⁻⁶ cm/s
